The values that follow come from ChEMBL document CHEMBL1795238, “Structure-brain exposure relationships in rat and human using a novel data set of unbound drug concentrations in brain interstitial and cerebrospinal fluids” (J Med Chem, 2009).

Series [1] in a line: in vivo. The note with it: Sprague-Dawley, rat, iv, 2 (umol/kg)/hr.
A short description of series [2]: in vivo. The note with it: Sprague-Dawley, rat, iv, 2 (umol/kg)/hr. The source holds these as a separate data set.
Another series is described as follows: clinical. The note with it: human, CSF and plasma.
Series [3] deals with Plasma. The note with it: rat, iv, 4 h.
Series [4] can be described thus: in vivo. Particulars: Sprague-Dawley, rat, iv, 2 (umol/kg)/hr. This is another data set of the same source.
For series [5], the system named is Plasma. The note with it: rat, iv, 4 h. This is another data set of the same source.
Another series deals with Brain. The note with it: rat, in vivo, iv, 4 h.
A further series is described as follows: in vitro. Particulars: Sprague-Dawley, rat, plasma, iv, 2 (umol/kg)/hr.
Series [6] has as its system Plasma. The note with it: rat, iv, 4 h, BLD = below limit of detection.
The conditions of series [7]: rat, brain, iv, 4 h.
For series [8] the following is noted: Sprague-Dawley, rat, iv, 2 (umol/kg)/hr, 4 h.

For orientation: fraction unbound means the share of the substance not bound to proteins or other matrix. A low value points to extensive binding.

Structures are written as SMILES.

Description for clinical: Unbound CSF to plasma concentration ratio in human

As to `CSc1ccc2c(c1)N(CCC1CCCCN1C)c1ccccc1S2` (stereo unspecified) [THIORIDAZINE], the Kp uu at 4 h in “in vivo [1]” (csf) was determined as 0.21; in “in vivo [2]” (brain), 0.45. Besides, in “clinical”, the Kp uu was 1.4. The Fu in the series with Plasma [3] came out at 0.002. This molecule also gave a Kp at 4 h in “in vivo [4]” (brain) of 3.75. Further, the “Cp(f)” value in the series on Plasma [5] stood at 1.3 nM. The Vdu in the series with Brain was found to be 3333 mL.

`CC(=O)O[C@H]1C(=O)[C@@]2(C)[C@H]([C@H](OC(=O)c3ccccc3)[C@]3(O)C[C@H](OC(=O)[C@H](O)[C@@H](NC(=O)c4ccccc4)c4ccccc4)C(C)=C1C3(C)C)[C@]1(OC(C)=O)CO[C@@H]1C[C@@H]2O` [PACLITAXEL] gave a Kp uu at 4 h in “in vivo [2]” (brain and plasma) of 0.007. In addition, in “in vitro”, the fraction unbound at 4 h came to 0.05. Further, the Kp at 4 h in the series “in vivo [4]” (brain) came to 0.28. Also, the “Cp(f)” value with Plasma [5] amounted to 16 nM. In the series with Plasma [6], the “K(p,uu,CSF)” value is on record as “BLD”. In the series on Brain, this molecule gave a Vdu of 769 mL.

The molecule `CO/N=C(\C(=O)N[C@@H]1C(=O)N2C(C(=O)O)=C(COC(C)=O)CS[C@H]12)c1csc(N)n1` [CEFOTAXIME] registered a Kp uu at 4 h in the series “in vivo [1]” (csf) of 0.007. For the same molecule, the Kp uu in “clinical” is 0.17. The fraction unbound at 4 h in “in vitro” was 0.59. In addition, the BPR result in [7] (Sprague-Dawley, 2 (umol/kg)/hr) is “ND(Unstable)”. In the series with Plasma [5], the “Cp(f)” value was determined as 2800 nM. Besides, the Vdu result in the series on Brain was “ND(Unstable)”. In addition, the “K(p,uu,brain)” value in series [8] was “ND(Unstable)”.

For `Cc1c(O)cccc1C(=O)N[C@@H](CSc1ccccc1)[C@H](O)CN1C[C@H]2CCCC[C@H]2C[C@H]1C(=O)NC(C)(C)C`, the Kp uu at 4 h came out at 0.067 in “in vivo [1]” (CSF and plasma); 0.019 in “in vivo [2]” (brain and plasma). The molecule further had a Kp uu in “clinical” of 0.045. This molecule also yielded a BPR in series [7] of 0.04. Moreover, the “Cp(f)” value in the series on Plasma [5] came out at 1.9 nM. The Vdu with Brain was found to be 860 mL.

On to `CCn1cc(C(=O)O)c(=O)c2cc(F)c(N3CCNCC3)cc21` [NORFLOXACIN], for which the Kp uu at 4 h amounted to 0.018 in the series “in vivo [1]” (csf) and 0.028 in the series “in vivo [2]” (brain). In “clinical”, this molecule returned a Kp uu of 0.11. Besides, the fraction unbound at 4 h in the series “in vitro” worked out at 0.87. This molecule gave a Kp at 4 h in the series “in vivo [4]” (brain) of 0.07. In the series on Plasma [5], the “Cp(f)” value was 700 nM. Also, the Vdu in the series with Brain was determined as 2.9 mL.

With `Nc1nnc(-c2cccc(Cl)c2Cl)c(N)n1` [LAMOTRIGINE], the Kp uu at 4 h was determined as 0.86 in “in vivo [1]” (csf) and 0.88 in “in vivo [2]” (brain). The molecule further gave a Kp uu in the series “clinical” of 1.1. The fraction unbound at 4 h in the series “in vitro” was determined as 0.51. Moreover, the BPR in series [7] (Sprague-Dawley, 2 (umol/kg)/hr) was determined as 2.02. The “Cp(f)” value in the series on Plasma [5] is 1800 nM. This molecule also registered a Vdu in the series with Brain of 4.6 mL.

Turning to `Nc1c2c(nc3ccccc13)CCCC2` [TACRINE], the Kp uu at 4 h in the series “in vivo [1]” (csf) came to 0.67; in the series “in vivo [2]” (brain), 0.78. The Kp uu in the series “clinical” is 0.74. This molecule also returned a fraction unbound at 4 h in the series “in vitro” of 0.55. In addition, the Kp at 4 h in the series “in vivo [4]” (brain) came out at 9.56. Moreover, the “Cp(f)” value in the series with Plasma [5] turned out to be 120 nM. In the series with Brain, the Vdu worked out at 22 mL.

Regarding `CC(C)NCC(O)COc1cccc2ccccc12` (stereo unspecified) [PROPRANOLOL], the Kp uu at 4 h in “in vivo [1]” (CSF and plasma) is 0.49; in the series “in vivo [2]” (brain and plasma) it was 0.61. The molecule also gave a Kp uu in “clinical” of 0.42. The same molecule showed a fraction unbound at 4 h in “in vitro” of 0.09. This molecule also displayed a Kp at 4 h in “in vivo [4]” (brain and plasma) of 6.59. For the same molecule, the “Cp(f)” value in the series on Plasma [5] turned out to be 51 nM. For the same molecule, the Vdu with Brain was found to be 118 mL.

On to `COc1ccc2c3c1O[C@H]1[C@@H](O)C=C[C@H]4[C@@H](C2)N(C)CC[C@@]341` [CODEINE], for which the results for the Kp uu at 4 h in the series “in vivo [1]” (csf) and in “in vivo [2]” (brain) were 0.54 and 0.89, respectively. This molecule also had a Kp uu in the series “clinical” of 0.79. In the series “in vitro”, the fraction unbound at 4 h stood at 0.95. The same molecule displayed a Kp at 4 h in “in vivo [4]” (brain) of 2.7. Also, the “Cp(f)” value with Plasma [5] turned out to be 210 nM. Besides, in the series with Brain, the Vdu was found to be 3.2 mL.
